Assay results: patent US4604355A, “Maltogenic amylase enzyme, preparation and use thereof” (Novo Industri A/S, priority 1983, dated 1986)

Target: T1, C599 maltogenic amylase from Bacillus strain C599 NCIB 11837 (Geobacillus stearothermophilus, UniProt P19531)
T1 construct: The enzyme is excreted into the medium; made in house; host or cells: Bacillus strain C599 (NCIB 11837), the natural producer; no recombinant host
T1 sequence (P19531 34-719): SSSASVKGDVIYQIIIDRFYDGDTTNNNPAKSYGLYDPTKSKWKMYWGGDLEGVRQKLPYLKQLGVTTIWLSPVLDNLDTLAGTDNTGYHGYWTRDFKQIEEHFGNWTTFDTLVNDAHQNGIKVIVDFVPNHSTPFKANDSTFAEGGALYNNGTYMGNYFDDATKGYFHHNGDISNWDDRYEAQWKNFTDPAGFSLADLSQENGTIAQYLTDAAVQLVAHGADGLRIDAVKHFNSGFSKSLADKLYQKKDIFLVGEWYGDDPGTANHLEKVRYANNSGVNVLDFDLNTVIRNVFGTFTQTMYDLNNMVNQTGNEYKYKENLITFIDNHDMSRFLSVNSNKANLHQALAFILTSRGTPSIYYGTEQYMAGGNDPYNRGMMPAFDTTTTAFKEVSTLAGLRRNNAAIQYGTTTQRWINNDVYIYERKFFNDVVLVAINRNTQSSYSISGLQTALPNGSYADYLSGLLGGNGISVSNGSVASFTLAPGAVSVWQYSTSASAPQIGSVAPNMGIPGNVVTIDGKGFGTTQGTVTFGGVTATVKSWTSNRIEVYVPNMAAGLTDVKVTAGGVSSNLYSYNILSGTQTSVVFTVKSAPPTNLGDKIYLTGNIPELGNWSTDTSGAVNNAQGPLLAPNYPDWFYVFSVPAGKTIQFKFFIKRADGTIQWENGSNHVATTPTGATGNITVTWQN
Experiment: Inhibition of C599-amylase (residual activity after incubation with inhibitors)
Type: biochemical
Settings: None = 100
Method: One maltogenic amylase unit (U) is defined as the amount of enzyme which under standard conditions (temperature 60° C., pH 5.5, and reaction time 30 minutes) produces reducing sugar corresponding to 1 μmol maltose per minute.
A 0.5% soluble starch (supplied by Merck) in 0.1M acetate buffer or 0.05M phosphate buffer (pH 5) is incubated with 1 ml of the enzyme dissolved in deionized water containing 0.1-0.2 U per ml. The reaction is stopped after 30 minutes by addition of 4 ml 0.5N NaOH.
The content of reducing sugar is then determined by means of the Somogyi method (Somogyi: J.Biol.Chem., 153, p. 375-80 (1944).

SMILES	Residual activity after 60 min. at room temperature, % (inhibitor 1 mM) [%]	Residual activity after 60 min. at room temperature, % (inhibitor 1%) [%]
O=C(O)c1cc[c]([Hg][Cl])cc1 [PCMB, parachloromecuribenzoate]	92	–
OC[C@H]1O[C@@H]2O[C@H]3[C@H](O)[C@@H](O)[C@@H](O[C@H]4[C@H](O)[C@@H](O)[C@@H](O[C@H]5[C@H](O)[C@@H](O)[C@@H](O[C@H]6[C@H](O)[C@@H](O)[C@@H](O[C@H]7[C@H](O)[C@@H](O)[C@@H](O[C@H]1[C@H](O)[C@H]2O)O[C@@H]7CO)O[C@@H]6CO)O[C@@H]5CO)O[C@@H]4CO)O[C@@H]3CO [Schardinger-α-cyclodextrin]	–	109
OC[C@H]1O[C@@H]2O[C@H]3[C@H](O)[C@@H](O)[C@@H](O[C@H]4[C@H](O)[C@@H](O)[C@@H](O[C@H]5[C@H](O)[C@@H](O)[C@@H](O[C@H]6[C@H](O)[C@@H](O)[C@@H](O[C@H]7[C@H](O)[C@@H](O)[C@@H](O[C@H]8[C@H](O)[C@@H](O)[C@@H](O[C@H]1[C@H](O)[C@H]2O)O[C@@H]8CO)O[C@@H]7CO)O[C@@H]6CO)O[C@@H]5CO)O[C@@H]4CO)O[C@@H]3CO [Schardinger-β-cyclodextrin]	–	107
